Reference: patent US12161675B2, “Production method for culture supernatant preparation” (LABORATORY OF CELL APPLIED TECHNOLOGIES, CO, priority 2018, dated 2024)

Assays:
[1] = system: VEGF protein; assay: VEGF protein in ASC culture supernatant by QUANTIKINE ELISA; format: cell-based, human; conditions: 48 hours; for VEGF concentration: ASC culture supernatant, 0 ng/mL gave 199.5
Protocol: (§1) Adipose tissue-derived mesenchymal stromal cells extracted by subjecting normal human adipose tissues to an enzyme treatment were cultured using a DME medium (Dulbecco's modified eagle medium manufactured by Gibco, high glucose) including 20% fetal bovine serum (FBS) in a non-treated culture flask (manufactured by FALCON) as primary culture. The primary culture cells right before confluency were recovered by an enzyme treatment, seeded on a non-treated 12-well culture plate (manufactured by Sumitomo Bakelite Co., Ltd.) using the same medium, and cultured until becoming confluent.
(§2) After rinsing the cells, the medium was replaced with an FBS-free DME medium or HBSS (Hanks' balanced salt solution manufactured by Sigma-Aldrich Co.)-HEPES. Subsequently, 12 wells were divided into 4 groups each consisting of 3 wells, and the FBS-free DME medium was cultured in a 5% CO2 incubator (Reference example) and HBSS-HEPES was cultured in an incubator (Example). The culture supernatant in each well was recovered immediately after replacement (0 hours) and 3 hours, 6 hours, 24 hours, and 48 hours thereafter.
The culture supernatant recovered as described in cell culture and recovery of culture supernatant was passed through a filter having a diameter of 0.22 micrometers to prepare a sample for protein quantification.
Protein quantification of the sample was performed by using the QUANTIKINE ELISA (Human VEGF, FGF-2) kit from R&D Systems, Inc. and a quantitative value of each protein was obtained in accordance with the protocol of the kit.
The rinsed cells were divided into 4 groups each consisting of 3 wells and their culture media were replaced with HBSS-HEPES added with PGE1 (Prostandin manufactured by Maruishi Pharmaceutical. Co., Ltd.) at a concentration of 0 ng/ml, 4 ng/ml, 40 ng/ml, and 400 ng/ml, followed by culturing in an incubator (Example). At 48 hours after the replacement, the culture supernatant was recovered from each well and subjected to protein quantification using QUANTIKINE ELISA Human VEGF (manufactured by R&D Systems, Inc.). […] The complementary DNA was used to relatively quantify the VEGF gene expression level by real-time PCR (Rotor-Gene Q manufactured by QIAGEN).
After rising, three groups were each added with 3 mL, 2 mL, or 1 mL of HBSS (Hanks' balanced salt solution manufactured by Sigma-Aldrich Co.)-HEPES pH7.4 and cultured for 48 hours in an incubator (Example). Subsequently, each culture supernatant was recovered in a 5 mL tube (manufactured by BD Falcon) and the VEGF protein was quantified by using QUANTIKINE ELISA Human VEGF (manufactured by R&D Systems, Inc.). […] Then, the complementary DNA was used to relatively quantify the VEGF gene expression level by real-time PCR (Rotor-Gene Q manufactured by QIAGEN). […]

[2] = system: VEGF gene; assay: VEGF gene expression by real-time PCR in adipose tissue-derived mesenchymal stromal cells (ASC); format: cell-based, human; conditions: 48 hours; for Value of mRNA relative quantification (VEGF): 0 ng/mL = 1.00
Protocol: as §1
After confirming that the cells became confluent, the medium was removed and the cell surface was rinsed with PBS (Dulbecco's phosphate buffered saline manufactured by DS Pharma Biomedical Co., Ltd.).
as §2
After recovering the culture supernatant as described above, an RNA extraction solution ISOGEN (Nippon Gene Co., Ltd., No. 319-90211) was added to each well in an amount of 400 microliters and the total RNAs were extracted from the cells in accordance with a conventional method. The precipitate of the total RNAs obtained by using Ethachinmate (Nippon Gene Co., Ltd., No. 312-01791) was dissolved in nuclease-free water. The concentration of the total RNAs was measured using 1.5 microliters of the dissolved RNAs by NanoDrop (Thermo Fisher Scientific). One hundred nanograms of the total RNAs thus obtained were used to synthesize complementary DNA using an iScript cDNA synthesis kit (Bio-Rad Laboratories, Inc., No. 1708891), and the resulting complementary DNA was used for quantifying an expression level of each gene by real-time PCR (Rotor-Gene Q manufactured by QIAGEN).
The synthesized DNA, primers (QuantiTect Primer Assay, QIAGEN) specific for the gene to be detected and quantified, and a real-time PCR agent (RotorGene SYBR Green, QIAGEN) were mixed, and real-time PCR was performed by using the Rotor-Gene Q system (QIAGEN) to amplify fragments of the gene to be detected and quantified. In this operation, primers specific for β-Actin as a housekeeping gene were used for amplification in the same manner, and this amplification curve was used as a reference to relatively calculate a quantitative value of the gene desired to be detected and quantified. […]

[3] = Storage stability of freeze-dried culture supernatant (VEGF protein by ELISA); format: physicochemical; conditions: for Value of VEGF relative quantification at each storage temperature: trehalose 250 mM
Protocol: As was in Example 5, the culture supernatant after 48 hours in the second culturing step was recovered and the culture supernatant obtained by centrifugal separation (740G, 5 minutes) was divided into 2 groups, a no addition group and a group with addition of 250 mM trehalose (manufactured by Hayashibara Co., Ltd.). Subsequently, the culture supernatant was passed through a filtration filter (KURABO INDUSTRIES Ltd.) having a membrane pore diameter of 0.2 micrometers and aliquoted into syringes (Terumo Corp.). The syringes were sealed in sterile bags, frozen in a −80° C. freezer, and then transferred to the inside of the freeze-drying device (Yamato Scientific Co., Ltd.) to perform freeze drying. After the completion of freeze drying, the syringes were sealed with luer caps for syringe (Terumo Corp.). The freeze-dried samples were stored in a sealed state under three temperature conditions of −80° C., 4° C., and 25° for 3 weeks. After 3 weeks, the freeze-dried samples were resuspended in water for injection (manufactured by Otsuka Pharmaceutical Co., Ltd.) and protein quantification was performed using QUANTIKINE ELISA Human VEGF (manufactured by R&D Systems, Inc.). As a quantitative value, a relative quantitative value of the VEGF protein at each storage temperature was calculated by taking a quantitative value of the VEGF protein included in the culture supernatant stored at −80° C. for 3 weeks as a reference.

[4] = ASC, HBSS-HEPES with PGE1 0 to 400 ng/ml

Row | Value of VEGF relative quantification at each storage temperature ([3]; freeze-dried culture supernatant stored 3 weeks at 4° C., relative to −80° C.) | Value of VEGF relative quantification at each storage temperature ([3]; freeze-dried culture supernatant stored 3 weeks at 25° C., relative to −80° C.) | Value of VEGF relative quantification at each storage temperature ([3]; freeze-dried culture supernatant stored 3 weeks at −80° C. (reference)) | VEGF protein after storage of freeze-dried culture supernatant ([3]; stored 3 weeks under the environment of 25° C., trehalose final concentration 250 mM) | SMILES | VEGF concentration ([1]; HBSS-HEPES with PGE1 4 ng/mL) [pg/mL] | VEGF concentration ([1]; HBSS-HEPES with PGE1 40 ng/mL) | VEGF concentration ([1]; HBSS-HEPES with PGE1 400 ng/mL) [pg/mL] | protein amount (VEGF) in culture supernatant [1, 4] | Value of mRNA relative quantification (VEGF) ([2]; ASC in HBSS-HEPES with PGE1 4 ng/mL) | Value of mRNA relative quantification (VEGF) ([2]; ASC in HBSS-HEPES with PGE1 40 ng/mL) | Value of mRNA relative quantification (VEGF) ([2]; ASC in HBSS-HEPES with PGE1 400 ng/mL) | relative quantitative value of the mRNA expression level (VEGF) [2, 4]
1 |  |  |  |  | CCCCC[C@H](O)/C=C/[C@H]1[C@H](O)CC(=O)[C@@H]1CCCCCCC(=O)O [PGE1] | 201.8 | 281. 5 pg/mL | 299.0 | tended to increase | 0.88 | 1.04 | 0.97 | remained substantially constant
2 | 0.96 | 0.73 | 1.00 | suppressed the reduction | OC[C@H]1O[C@H](O[C@H]2O[C@H](CO)[C@@H](O)[C@H](O)[C@H]2O)[C@H](O)[C@@H](O)[C@@H]1O [Trehalose, trehalose] |  |  |  |  |  |  |  | 
